Measurements from article PMC9549030, “Structural basis for specific inhibition of the deubiquitinase UCHL1” (Nature Communications, 2022).
Where a chain is given by its changes, count along the chain named. “And” between values parts separate entries of the source, which are not always exact repeats. Equal entries are not always repeated. “Also recorded” adds a separate entry of the source. Where two headings read alike, the source gives them in different places.

Tests used:
UCHL3 L168F = target: T1, UCHL3 L168F (Homo sapiens, UniProt P15374, L168F); test: Ub-Rhodamine (Ubiquitin rhodamine cleavage) assay; assay type: biochemical; conditions: Supplementary Fig. 10d; 5 mM DTT in buffer H; read-out: IC50 (UCHL3 L168F)
T1 sequence (P15374 1-230 L168F): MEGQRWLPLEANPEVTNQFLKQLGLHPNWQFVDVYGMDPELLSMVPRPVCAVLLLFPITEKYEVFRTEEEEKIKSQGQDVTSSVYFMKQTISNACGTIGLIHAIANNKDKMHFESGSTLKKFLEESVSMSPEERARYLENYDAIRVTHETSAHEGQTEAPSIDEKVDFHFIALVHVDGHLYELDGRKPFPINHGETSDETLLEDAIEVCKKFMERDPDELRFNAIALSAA

UCHL3 A11I+L168F = target: T2, UCHL3 A11I+L168F (Homo sapiens, UniProt P15374, A11I/L168F); test: Ub-Rhodamine (Ubiquitin rhodamine cleavage) assay; assay type: biochemical; conditions: Supplementary Fig. 10d; 5 mM DTT in buffer H; read-out: IC50 (UCHL3 A11I+L168F)
T2 sequence (P15374 1-230 A11I/L168F): T1 sequence (P15374 1-230 L168F) with A11I

UCHL3 = target: T3, UCHL3 (Homo sapiens, UniProt P15374); test: Ub-Rhodamine (Ubiquitin rhodamine cleavage) assay; assay type: biochemical; conditions: Supplementary Fig. 10d; 5 mM DTT in buffer H; read-out: IC50 (UCHL3 wt)
T3 sequence (P15374 1-230): T1 sequence (P15374 1-230 L168F) with F168L

UCHL3 A11I = target: T4, UCHL3 A11I (Homo sapiens, UniProt P15374, A11I); test: Ub-Rhodamine (Ubiquitin rhodamine cleavage) assay; assay type: biochemical; conditions: Supplementary Fig. 10d; 5 mM DTT in buffer H; read-out: IC50 (UCHL3 A11I)
T4 sequence (P15374 1-230 A11I): T1 sequence (P15374 1-230 L168F) with A11I, F168L

UCHL1 in U-87 MG cells = tested on: T5, UCHL1 in U-87 MG cells; test: Cellular Ub-probe (HA-Ub-VS) competition, inhibition of cellular UCHL1; assay type: cell-based, human; conditions: 1 or 24 h
T5 construct: Western blot analysis of endogenous UCHL1 labeled with HA-Ub-VS after treatment of U-87 MG cells; endogenous in cells; host or cells: U-87 MG
Procedure: (§1) Proteins were transferred to a polyvinylidene fluoride (PVDF, only experiments in Fig. 4e and Supplementary Fig. 7e, f) or nitrocellulose (all other experiments) membrane using a Trans-Blot Turbo system (Bio-Rad, 1.3 A, 25 V, 10 min). The membranes were blocked with 5% (m/v) nonfat milk in PBS-T buffer and incubated with indicated primary antibodies (anti-UCHL1, 1:1000, Cell Signaling, D3T2E; anti-PARK7, 1:1000, Cell Signaling, D29E5; anti-Tubulin, 1:4000, Sigma, T6199; anti-Hemagglutinin, 1:1000, BioLegend, 16B12; anti-flag, 1:2000, Sigma, F3165; anti-Ubiquitin, 1:1000, Cell Signaling, P4D1; anti-Ubiquitin, 1:300, Santa Cruz, P4D1, sc-8017; anti-UCHL3, 1:1000, Proteintech, 12384-1-AP) overnight. Then the membranes were incubated with the respective secondary antibody (anti-mouse,1:5000, Sigma, NXA931; anti-rabbit, 1:5000, Sigma, GENA934) coupled to horseradish peroxidase. The chemiluminescent reaction was initiated using a Clarity Western ECL substrate (Bio-Rad) and images were taken on a ChemiDoc MP Imaging System (Bio-Rad).
(§2) The total protein concentration was adjusted to 2 mg/ml by diluting each sample with ABP lysis buffer. A final concentration of 1 µM HA-Ub-VS probe was added, followed by incubation for 30 min at 37 °C. The labeling reaction was quenched by the addition of 4x LDS sample buffer. The samples were separated via SDS-PAGE and further analyzed via western blotting as described above.

Cathepsin C = tested on: Cathepsin C; set-up: method as in SI-Ref-4; conditions: ref SI-Ref-4; cited from earlier work
HEK293 cells proteome = test: Identification of probe-labeled proteins with mass spectrometry (pulldown, other proteins); conditions: 1 µM, vs DMSO
Procedure: Cells were cultured, treated with a compound, and lysed as described above. The cell lysate was diluted to a protein concentration of 2 mg/mL with ABP lysis buffer. 1 µL of each click reagent (see above) were added to each sample, followed by an incubation period of one hour at room temperature with protection from light. The sample volume was adjusted to 1000 µL with PBS and 30 µL of a NeutrAvidin (Thermo Fisher) bead slurry (prewashed 3x with PBS) were added to each sample. The samples were incubated for one hour to overnight on a rotator at 15 rpm at 4 °C. […] Tryptic peptides were desalted with C18 StageTips and analyzed by nano-HPLC-MS/MS.
An Ultimate 3000 RSLC nano-HPLC system and a Hybrid-Orbitrap mass spectrometer (Q Exactive Plus) equipped with a nano-spray source (Thermo Fisher Scientific) was used. […] Proteins were relatively quantified by using MaxQuant[60] v.2.0.3.1, including the Andromeda search algorithm and searching the Homo sapiens reference proteome of the UniProt database. […] Only proteins for which at least two peptides were quantified were chosen for further validation. Relative quantification of proteins was performed by using the label-free quantification algorithm implemented in MaxQuant. […] Label-free quantification (LFQ) intensities were log-transformed (log2); replicate samples were grouped together. […]

UCHL1 [1] = target: T6, UCHL1 (Homo sapiens, UniProt P09936); test: Ub-Rhodamine (Ubiquitin rhodamine cleavage) assay; assay type: biochemical; conditions: 1 h preincubation; for IC50: read-out: IC50 (UCHL1)
T6 sequence (P09936 1-223): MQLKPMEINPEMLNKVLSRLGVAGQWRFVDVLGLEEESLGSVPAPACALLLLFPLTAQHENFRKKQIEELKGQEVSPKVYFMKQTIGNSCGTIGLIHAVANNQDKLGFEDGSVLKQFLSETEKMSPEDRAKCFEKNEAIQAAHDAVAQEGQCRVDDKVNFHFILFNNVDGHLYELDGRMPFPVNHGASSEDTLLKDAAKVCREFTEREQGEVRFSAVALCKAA

UCHL1 in HEK293 cells = tested on: T7, UCHL1 in HEK293 cells; test: Cellular Ub-probe (HA-Ub-VS) competition, inhibition of cellular UCHL1; assay type: cell-based, human
T7 construct: Western blot analysis of endogenous UCHL1 labeled with HA-Ub-VS after treatment of HEK293 cells; endogenous in cells; host or cells: HEK293
Procedure: as §1, §2

[2] = tested on: monoubiquitin in U-87 MG cells; test: Quantification of monoubiquitin levels; assay type: cell-based, human; conditions: 48 h, independent experiments
Procedure: U-87 MG cells (5 × 10^5/well) were seeded in six-well plates and cultivated for 8 h. Cells were transfected with siRNA as described above. On the next day, cells were cultured in fresh media supplemented with either compounds (final conc. 5 µM) or DMSO, where indicated, for a further 48 h. The media was changed every 24 h to a fresh medium supplemented with compounds (final conc. 5 µM) or DMSO. […] Monoubiquitin band intensities were first normalized to α-tubulin or total protein (Fast Green FCF, TCI) and subsequently normalized to the intensities of monoubiquitin bands in the sample treated with DMSO or siScr (where no DMSO was used) which was set to “1”.

UCHL1 [3] = target: T6, UCHL1; test: Identification of probe-labeled proteins with mass spectrometry (pulldown enrichment); conditions: HEK293 cells; 1 µM; 24 h
Procedure: Cells were cultured, treated with a compound, and lysed as described above. The cell lysate was diluted to a protein concentration of 2 mg/mL with ABP lysis buffer. 1 µL of each click reagent (see above) were added to each sample, followed by an incubation period of one hour at room temperature with protection from light. The sample volume was adjusted to 1000 µL with PBS and 30 µL of a NeutrAvidin (Thermo Fisher) bead slurry (prewashed 3x with PBS) were added to each sample. The samples were incubated for one hour to overnight on a rotator at 15 rpm at 4 °C. Beads were pelleted by centrifugation, the supernatant was discarded, and the beads were washed six times (1x with ½x lysis buffer, followed by five washes with PBS). After removing the washing solution completely, the beads were subjected to reduction with dithiothreitol (1 mM), alkylation with chloroacetamide (5 mM) and on-bead digestion with first LysC (Serva Biotech, 1 h, 37 °C), followed by trypsin (Sigma Aldrich, 1 h, overnight). Tryptic peptides were desalted with C18 StageTips and analyzed by nano-HPLC-MS/MS.
An Ultimate 3000 RSLC nano-HPLC system and a Hybrid-Orbitrap mass spectrometer (Q Exactive Plus) equipped with a nano-spray source (Thermo Fisher Scientific) was used. The protein fragments were enriched on a C18 PepMap 100 column (5 μm, 100 Å, 300 μm ID * 5 mm, Dionex) using 0.1% TFA, at a flow rate of 30 μL/min, for 5 min and separated on a C18 PepMap 100 column (3 μm, 100 Å, 75 μm ID × 50 cm) using a linear gradient (5–30% ACN/H2O + 0.1% formic acid over 90 min) with a flow rate of 300 nL/min. […] Signals in the mass range of m/z 300 to 1650 were acquired at a resolution of 70,000 for the full scan, followed by ten high-energy collision-dissociation (HCD) MS/MS scans of the most intense at least doubly charged ions at a resolution of 17,500. Proteins were relatively quantified by using MaxQuant[60] v.2.0.3.1, including the Andromeda search algorithm and searching the Homo sapiens reference proteome of the UniProt database. Briefly, an MS/MS ion search was performed for enzymatic trypsin cleavage, allowing two missed cleavages. Carbamidomethylation was set as a fixed protein modification, and oxidation of methionine and acetylation of the N-terminus were set as variable modifications. The mass accuracy was set to 20 parts per million (ppm) for the first search and to 4.5 ppm for the second search. The false discovery rates for peptide and protein identification were set to 0.01. Only proteins for which at least two peptides were quantified were chosen for further validation. Relative quantification of proteins was performed by using the label-free quantification algorithm implemented in MaxQuant. Statistical data analysis of pulldown samples was performed using Perseus[61] v.1.6.15.0, including proteins which were identified in at least four of the five biological replicates which were used per condition. Label-free quantification (LFQ) intensities were log-transformed (log2); replicate samples were grouped together. Pairwise comparisons of groups were performed separately. Missing values were imputed using small normally distributed values (width 0.3, downshift 1.8) and a two-sided t-test (s0 = 5, FDR = 0.001) was performed.

UCHL1 [4] = target: T6, UCHL1; test: Thermal shift assay; assay type: binding; conditions: for melting temperature (Tm) of UCHL1: UCHL1 1 µM, 1 h, replicates
Procedure: Reactions were performed in white 96-well PCR plates (Bio-Rad). UCHL1 was diluted in thermal shift buffer (1x PBS, 5 mM DTT) to a 4x concentration of 4 µM. The protein was then mixed with 4x compound dissolved in thermal shift buffer in a 1:1 ratio. To each well was added 20 µL of DUB-Inhibitor solution, followed by 1 h incubation time. To each well was then added 20 µL 4x SYPRO Orange in thermal shift buffer. After sealing the plates with a transparent film, thermal denaturation (gradient: 20–90 °C; Increment: 0.3 °C, hold for 5 s before read) was performed and monitored by a Bio-Rad Connect cycler.

U-87 MG cells = test: Cell growth and viability assay (confluency, propidium iodide); assay type: cell-based, human; conditions: up to 5 µM, up to 72 h
Procedure: (§3) HEK293 cells (5 × 10^3/well) or U-87 MG cells (5.5 × 10^3/well) were seeded into 96-well dishes. The following day cells were treated with the compounds at varying concentrations and propidium iodide at 20 µg/mL. The plates were immediately transferred to the Incucyte S3. Bright-field and red fluorescent images were automatically captured at 1 or 2 h intervals for 72 h with 10x magnification. The confluency of cells and the number of PI-positive cells was determined using the Incucyte masking program.

HEK293 cells = test: as above; assay type: cell-based, human
Procedure: as §3

DUBs in HEK293 lysate = test: Activity-based protein profiling in the lysate with Ub-VS competition; assay type: binding, human; conditions: 1 µM, 1 h
Procedure: Cells (4 × 10^6) were seeded in 10 cm dishes and grown to 90% confluency. The medium was aspirated, cells were washed with ice-cold PBS, treated with 600 µL ABP lysis buffer (1% (v/v) IGEPAL, 50 mM Tris, 150 mM NaCl, 5% glycerol, pH 8, cOmplete protease inhibitor cocktail), and incubated on ice for 15 min. The lysed cells were scrapped off the dish, cleared by centrifugation, and the protein concentration was determined via a Bradford assay. […] Each compound was diluted to a 2x concentration in PBS buffer from a 10 mM stock in DMSO (final concentration: 1 µM). Then each compound dilution or a DMSO dilution was mixed with cell lysate and incubated for one hour at room temperature. […] Samples were resolved by SDS-PAGE using a 4–12% Bis-Tris gel (Invitrogen, NuPAGE) with MES SDS running buffer for 50 min at 180 V. Fluorescence was read out using the Alexa564 (λex/em 520–545/577–613 nm, for TAMRA) and Alexa680 (λex/em 650–675/700–730 nm, for the PageRuler Prestained NIR Protein Ladder (Thermo Scientific)) channels on a ChemiDoc MP Imaging System (Bio-Rad).

UCHL1 [5] = target: T6, UCHL1; test: kobs/[I] kinetic assay; assay type: biochemical; conditions: mean ± SD of independent experiments
Procedure: Reactions were performed in 384 well plates as above. Compound (5 µL of a 4x stock in reaction buffer H supplemented with 2.5 mM TCEP; varying final concentrations ranging from 78 nM to 200 µM) and Ub-Rhodamine 110 (5 µL of a 4x stock in buffer H supplemented with 2.5 mM TCEP; final concentration: 50 nM) were mixed in a 1:1 ratio.

NC(=O)CI [IAA, iodoacetamide, reference compound]
IC50 (UCHL3 L168F): 2 ± 0.1 mM | IC50 (UCHL3 A11I+L168F): 2.2 ± 0.1 mM | IC50 (UCHL3): 1.7 ± 0.1 mM | IC50 (UCHL3 A11I): 1.9 ± 0.1 mM

CC(=O)O/N=C1\C(=O)N(Cc2cc(Cl)ccc2Cl)c2ccc(Cl)cc21 [LDN-57444, reference compound]
inhibition of cellular UCHL1 (UCHL1 in U-87 MG cells): does not lead to inhibition of cellular UCHL1

N#Cc1ccc(-c2ccc(C[C@@H](C#N)NC(=O)C3(N)CCOCC3)cc2)cc1 [AZD5248]
IC50 (Cathepsin C): 2.9 nM

C#CCCCNC(=O)[C@H]1CCN(C#N)C1 [GK16S]
Fold change log2, protein 02. Sep (HEK293 cells proteome): 0.4147 | Fold change log2, protein 07. Sep (HEK293 cells proteome): 0.472 | IC50 (UCHL1 [1]): > 100000 nM | remaining activity at 0.00050402 µM (UCHL1 [1]; compound 0.50402 nM, read-out: UCHL1 activity, data point mean): 90.8% | remaining activity at 0.00151206 µM (UCHL1 [1]; compound 1.51206 nM, read-out: UCHL1 activity, data point mean): 89.7% | remaining activity at 0.00453618 µM (UCHL1 [1]; compound 4.53618 nM, read-out: UCHL1 activity, data point mean): 99.1% | remaining activity at 0.0136085 µM (UCHL1 [1]; compound 13.6085 nM, read-out: UCHL1 activity, data point mean): 96.8% | remaining activity at 0.0408257 µM (UCHL1 [1]; compound 40.8257 nM, read-out: UCHL1 activity, data point mean): 83.7% | remaining activity at 0.122477 µM (UCHL1 [1]; compound 122.477 nM, read-out: UCHL1 activity, data point mean): 87.4% | remaining activity at 0.367431 µM (UCHL1 [1]; compound 367.431 nM, read-out: UCHL1 activity, data point mean): 90.4% | remaining activity at 1.10229 µM (UCHL1 [1]; compound 1102.29 nM, read-out: UCHL1 activity, data point mean): 91.3% | remaining activity at 3.30688 µM (UCHL1 [1]; compound 3306.88 nM, read-out: UCHL1 activity, data point mean): 90.9% | remaining activity at 30.581 µM (UCHL1 [1]; compound 30581 nM, read-out: UCHL1 activity, data point mean): 81% | remaining activity at 100 µM (UCHL1 [1]; compound 100000 nM, read-out: UCHL1 activity, data point mean): 68.2% | inhibition of cellular UCHL1 (UCHL1 in HEK293 cells; HEK293 cells, 24 h): did not equate to a detectable inhibition; also recorded: does not inhibit cellular UCHL1 | monoubiquitin intensity normalized to DMSO (= 1) ([2]; siSCr, 5 µM): 1.022 and 1.336 and 1.231 and 0.8547 | monoubiquitin intensity normalized to DMSO (= 1) ([2]; siUCHL3, 5 µM): 1.049 and 0.9228 and 0.9331 and 0.7832 and 1.05 and 0.7905 | enrichment factor of UCHL1 (log2, vs DMSO) (UCHL1 [3]): 3 | melting temperature (Tm) of UCHL1 (UCHL1 [4]; compound 1.25 µM): 53.4 and 53.1 | melting temperature (Tm) of UCHL1 (UCHL1 [4]; compound 2.5 µM): 53.4 and 53.1 | melting temperature (Tm) of UCHL1 (UCHL1 [4]; compound 5 µM): 53.1 and 53.4 | toxicity (cell growth and viability) (U-87 MG cells): nontoxic | growth arrest and apoptosis (HEK293 cells; up to 5 µM, up to 72 h): neither GK13S nor GK16S showed growth arrest nor apoptosis

C#CCn1ccc2c(-c3cccc4c3CCN4C(=O)[C@@H]3CCCN3C#N)ccnc21 [CG173]
IC50 (UCHL1 [1]; mean ± SD of independent experiments): 43 ± 19 nM | inhibition of cellular UCHL1 (UCHL1 in HEK293 cells; after 1 h (Supplementary Fig. 5f)): very low degree of inhibition | inhibition of cellular UCHL1 (UCHL1 in HEK293 cells; after 24 h incubation (Supplementary Fig. 5f)): no inhibition of cellular UCHL1 at all | DUB engagement (Ub-VS competitive labeling) (DUBs in HEK293 lysate): Ubiquitin-probe competitive band of approx. 30 kDa | kinact/KI (UCHL1 [5]): 597 ± 209 M⁻¹ s⁻¹ | protein stabilization of UCHL1 compared with GK13S (UCHL1 [4]; Supplementary Fig. 5c): reduced protein stabilization | apoptosis and growth arrest (HEK293 cells; 1.3 and 5 µM): strong induction of apoptosis and growth arrest
